Measured values reported in PubChem BioAssay (NCI).
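Results reflect a 48-hour exposure of cells in 96-well plates to compound at five concentrations. GI50: concentration for 50% inhibition of growth. At the TGI there is no net growth.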

What was measured:
Assay in all cases: NCI tumour cell line growth inhibition, 48 h
[1] = test system: NCI-H226 lung
[2] = test system: M14 melanoma
[3] = test system: SN12C renal
[4] = test system: NCI-H522 lung
[5] = test system: UO-31 renal
[6] = test system: A498 renal
[7] = test system: NCI-H460 lung
[8] = test system: MDA-MB-468 breast
[9] = test system: RXF 393 renal
[10] = test system: HOP-92 NSCLC
[11] = test system: HCT-15 colon
[12] = test system: HCT-116 colon
[13] = test system: SNB-19 CNS
[14] = test system: SF-295 CNS
[15] = test system: HOP-62 NSCLC
[16] = test system: KM12 colon
[17] = test system: NCI/ADR-RES ovarian
[18] = test system: EKVX NSCLC
[19] = test system: OVCAR-3 ovarian
[20] = test system: DU-145 prostate
[21] = test system: UACC-62 melanoma
[22] = test system: MALME-3M melanoma
[23] = test system: RPMI-8226 leukemia
[24] = test system: SR leukemia
[25] = test system: T-47D breast
[26] = test system: CCRF-CEM leukemia
[27] = test system: SK-MEL-5 melanoma
[28] = test system: MDA-MB-231 breast
[29] = test system: OVCAR-8 ovarian

Compound: COc1ccccc1/C=C/C(=O)c1ccc(OC)c(S(N)(=O)=O)c1
- GI50 [1]: 3.96 µM
- TGI [1]: 15.5 µM
- GI50 [2]: 2.71 µM
- TGI [2]: 11.8 µM
- GI50 [3]: 2.79 µM
- TGI [3]: 10.4 µM
- GI50 [4]: 2.12 µM
- TGI [4]: 6.58 µM
- GI50 [5]: 2.9 µM
- TGI [5]: 13.4 µM
- GI50 [6]: 10.6 µM
- TGI [6]: 22.6 µM
- GI50 [7]: 2.09 µM
- TGI [7]: 5.51 µM
- GI50 [8]: 2.04 µM
- TGI [8]: 5.91 µM
- GI50 [9]: 2.35 µM
- TGI [9]: 8.86 µM
- GI50 [10]: 2.08 µM
- TGI [10]: 8.78 µM
- GI50 [11]: 1.99 µM
- TGI [11]: 10.5 µM
- GI50 [12]: 2.49 µM
- TGI [12]: 9.38 µM
- GI50 [13]: 4.02 µM
- TGI [13]: 15.3 µM
- GI50 [14]: 2.66 µM
- TGI [14]: 10.6 µM
- GI50 [15]: 2.88 µM
- TGI [15]: 10.3 µM
- GI50 [16]: 2.89 µM
- TGI [16]: 10 µM
- GI50 [17]: 2.29 µM
- TGI [17]: 6.68 µM
- GI50 [18]: 3.58 µM
- TGI [18]: 14.1 µM
- GI50 [19]: 2.23 µM
- TGI [19]: 5.05 µM
- GI50 [20]: 3.22 µM
- TGI [20]: 12 µM
- GI50 [21]: 2.95 µM
- TGI [21]: 12.3 µM
- GI50 [22]: 3.99 µM
- TGI [22]: 16.2 µM
- GI50 [23]: 2.49 µM
- TGI [23]: 7.46 µM
- GI50 [24]: 1.44 µM
- TGI [24]: 6.2 µM
- GI50 [25]: 3.25 µM
- TGI [25]: 12.3 µM
- GI50 [26]: 2.53 µM
- TGI [26]: 6.81 µM
- GI50 [27]: 3.85 µM
- TGI [27]: 14.2 µM
- GI50 [28]: 2.72 µM
- TGI [28]: 7.47 µM
- GI50 [29]: 2.36 µM
